US8680113B2, “BMI-1 protein expression modulators” (PTC Therapeutics, Inc., priority 2008, dated 2014)

Assays:
[1] = tested on: Bmi-1; assay: Sandwich ELISA Assay (Bmi-1 ELISA in HT-1080 cells); format: cell-based, human
In short: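 Lysate Bmi-1 was quantified against a recombinant GST-Bmi-1 standard (0-8000 pg/mL) by sandwich ELISA read at OD450 with OD570 reference. The ELISA used mouse monoclonal capture, rabbit anti-Bmi-1, HRP anti-rabbit IgG and TMB. Before lysis, HT-1080 cells seeded at 8000/well were exposed to compounds for 40-48 h at 37°C with 0.5% final DMSO.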

[2] = tested on: Bmi-1; assay: Cell Model Assay: Bmi-1 expression in K562; format: cell-based; details: K562 (chronic myelogenous leukemia)
Procedure: (§1) Using assay conditions known to those skilled in the art, the ability of the compounds described herein to reduce Bmi-1 expression in HT1080 (fibrosarcoma), U87-MG (glioblastoma), T98G (glioblastoma), K562 (chronic myelogenous leukemia) and KG1 (acute myelogenous leukemia) cell lines was tested (at test compound concentrations calculated from the ELISA assay data shown in Example 1) compared to puromycin as a control to provide the EC50 values shown in Table 2. The term “ND” means that data was not determined.

[3] = tested on: Bmi-1; assay: Cell Model Assay: Bmi-1 expression in KG1; format: cell-based; details: KG1 (acute myelogenous leukemia)
Procedure: as §1

[4] = tested on: Bmi-1; assay: Cell Model Assay: Bmi-1 expression in HT1080; format: cell-based, human; details: HT1080 (fibrosarcoma)
Procedure: as §1

[5] = tested on: Bmi-1; assay: Cell Model Assay: Bmi-1 expression in U87-MG; format: cell-based; details: U87-MG (glioblastoma)
Procedure: as §1

[6] = tested on: Bmi-1; assay: Cell Model Assay: Bmi-1 expression in T98G; format: cell-based; details: T98G (glioblastoma)
Procedure: as §1

[7] = tested on: MCL-Jeko; assay: Mantle Cell Lymphoma Assay: cytotoxicity, Jeko; format: cell-based; details: 72 hrs in culture
From the text: (§2) MCL cell lines Jeko, Mino, and Rec-1 were provided by American Type Culture Collection: The Bioresource Center (Manassas, Va.). […] Carlsbad, Calif.) in T-75 culture flasks. Cell concentration was maintained between 2 to 3×10^5 cells/mL. Early passage cells (passages 2-4) were used for all experiments. Ficoll-Histopaque density sedimentation (Sigma Aldrich) was used for separation of debris and purification of cell lines prior to experiments. […] The cytotoxic effect of test compounds on the MCL-cell lines was assessed by measuring cell concentration and cell viability using a Beckman Coulter Vi-Cell Counter. Controls and treated cells were harvested and counted at day 3.

[8] = tested on: MCL-Mino; assay: Mantle Cell Lymphoma Assay: cytotoxicity, Mino; format: cell-based; details: 72 hrs in culture
From the text: as §2

[9] = tested on: MCL-Rec1; assay: Mantle Cell Lymphoma Assay: cytotoxicity, Rec-1; format: cell-based; details: 72 hrs in culture
From the text: as §2

[10] = tested on: MM cell line; assay: Multiple Myeloma Assay; format: cell-based; details: 72 hrs in culture

## COc1cccc(Nc2nccc(-c3cnc4ccccn34)n2)c1 [Cpd 28, 4-(imidazo[1,2-a]pyridine-3-yl)-N-(3-methoxyphenyl)pyrimidin-2-amine]
[1]
  IC50: < 500 nM
[2]
  EC50: 261 nM
[3]
  EC50: 48 nM

## Cc1nc2ccc(Cl)cn2c1-c1csc(Nc2ccc(I)cc2)n1 [Cpd 29, 4-(6-chloro-2-methylimidazo[1,2-a]pyridin-3-yl)-N-(4-iodophenyl)thiazol-2-amine]
[1]
  IC50: < 500 nM
[2]
  EC50: 5 nM
[3]
  EC50: 304 nM

## Cc1nc2ccc(Cl)cn2c1-c1csc(Nc2ccc3c(c2)OCO3)n1 [Cpd 30, N-(benzo[d][1,3]dioxol-5-yl)-4-(6-chloro-2-methylimidazo[1,2-a]pyridin-3-yl)thiazol-2-amine]
[1]
  IC50: < 500 nM
[4]
  EC50: 4 nM
[2]
  EC50: < 4 nM
[3]
  EC50: 48 nM

## Cc1nc2ncccn2c1-c1csc(Nc2ccc(I)cc2)n1 [Cpd 39, N-(4-iodophenyl)-4-(2-methylimidazo[1,2-a]pyrimidin-3-yl)-1,3-thiazol-2-amine]
[1]
  IC50: < 500 nM
[4]
  EC50: 5 nM
[5]
  EC50: < 4 nM
[6]
  EC50: < 4 nM

## COCCOc1cc(Br)c(Nc2nc(-c3cnc4ccc(Cl)cn34)cs2)c(Br)c1 [Cpd 134, 4-(6-chloroimidazo[1,2-a]pyridin-3-yl)-N-[2,6-dibromo-4-(2-methoxyethoxy)phenyl]-1,3-thiazol-2-amine]
[1]
  IC50: < 500 nM
[7]; dose 0.004 μM
  Cell Concentration, MCL-Jeko: 2.11 ± 0.04 ×10^6
[7]; dose 0.004 μM, read-out: Cell Viability, MCL-Jeko
  viability at 0.004 µM: 94.1 ± 0.23%
[7]; dose 0.037 μM
  Cell Concentration, MCL-Jeko: 2.11 ± 0.03 ×10^6
[7]; dose 0.037 μM, read-out: Cell Viability, MCL-Jeko
  viability at 0.037 µM: 94.37 ± 0.18%
[7]; dose 0.11 μM
  Cell Concentration, MCL-Jeko: 1.97 ± 0.11 ×10^6
[7]; dose 0.11 μM, read-out: Cell Viability, MCL-Jeko
  viability at 0.11 µM: 93.77 ± 0.15%
[7]; dose 0.33 μM
  Cell Concentration, MCL-Jeko: 1.95 ± 0.02 ×10^6
[7]; dose 0.33 μM, read-out: Cell Viability, MCL-Jeko
  viability at 0.33 µM: 93.67 ± 0.13%
[7]; dose 1 μM
  Cell Concentration, MCL-Jeko: 1.82 ± 0.05 ×10^6
[7]; dose 1 μM, read-out: Cell Viability, MCL-Jeko
  viability at 1 µM: 93.87 ± 0.06%
[7]; dose 3 μM
  Cell Concentration, MCL-Jeko: 1.81 ± 0.02 ×10^6
[7]; dose 3 μM, read-out: Cell Viability, MCL-Jeko
  viability at 3 µM: 92.4 ± 0.22%
[8]; Homo sapiens, MINO, dose 0.004 μM, read-out: Cell Viability, MCL-Mino
  viability at 0.004 µM: 84.8 ± 0.7%
[8]; Homo sapiens, MINO, dose 0.037 μM, read-out: Cell Viability, MCL-Mino
  viability at 0.037 µM: 86.2 ± 0.8%
[8]; Homo sapiens, MINO, dose 0.11 μM, read-out: Cell Viability, MCL-Mino
  viability at 0.11 µM: 84.6 ± 0.5%
[8]; Homo sapiens, MINO, dose 0.33 μM, read-out: Cell Viability, MCL-Mino
  viability at 0.33 µM: 83.8 ± 0.2%
[8]; Homo sapiens, MINO, dose 1 μM, read-out: Cell Viability, MCL-Mino
  viability at 1 µM: 81.4 ± 0.8%
[8]; Homo sapiens, MINO, dose 3 μM, read-out: Cell Viability, MCL-Mino
  viability at 3 µM: 79 ± 0.8%
[8]; dose 0.004 μM
  Cell Concentration, MCL-Mino: 0.63 ± 0.01 ×10^6
[8]; dose 0.037 μM
  Cell Concentration, MCL-Mino: 0.65 ± 0.01 ×10^6
[8]; dose 0.11 μM
  Cell Concentration, MCL-Mino: 0.65 ± 0.01 ×10^6
[8]; dose 0.33 μM
  Cell Concentration, MCL-Mino: 0.59 ± 0.01 ×10^6
[8]; dose 1 μM
  Cell Concentration, MCL-Mino: 0.56 ± 0.02 ×10^6
[8]; dose 3 μM
  Cell Concentration, MCL-Mino: 0.47 ± 0.02 ×10^6
[9]; Homo sapiens, Rec1, dose 0.004 μM, read-out: Cell Viability, MCL-Rec1
  viability at 0.004 µM: 89.43 ± 0.18%
[9]; Homo sapiens, Rec1, dose 0.037 μM, read-out: Cell Viability, MCL-Rec1
  viability at 0.037 µM: 88.9 ± 1%
[9]; Homo sapiens, Rec1, dose 0.11 μM, read-out: Cell Viability, MCL-Rec1
  viability at 0.11 µM: 90.2 ± 0.63%
[9]; Homo sapiens, Rec1, dose 0.33 μM, read-out: Cell Viability, MCL-Rec1
  viability at 0.33 µM: 88.63 ± 0.24%
[9]; Homo sapiens, Rec1, dose 1 μM, read-out: Cell Viability, MCL-Rec1
  viability at 1 µM: 88.43 ± 0.48%
[9]; Homo sapiens, Rec1, dose 3 μM, read-out: Cell Viability, MCL-Rec1
  viability at 3 µM: 86.67 ± 0.84%
[9]; dose 0.004 μM
  Cell Concentration, MCL-Rec1: 0.84 ± 0.02 ×10^6
[9]; dose 0.037 μM
  Cell Concentration, MCL-Rec1: 0.86 ± 0.02 ×10^6
[9]; dose 0.11 μM
  Cell Concentration, MCL-Rec1: 0.90 ± 0.01 ×10^6
[9]; dose 0.33 μM
  Cell Concentration, MCL-Rec1: 0.85 ± 0.02 ×10^6
[9]; dose 1 μM
  Cell Concentration, MCL-Rec1: 0.78 ± 0.03 ×10^6
[9]; dose 3 μM
  Cell Concentration, MCL-Rec1: 0.73 ± 0.02 ×10^6
[10]; dose 0.004 μM
  Cell Concentration, MM cell line: 1.36 ± 0.01 ×10^6
  viability at 0.004 µM: 91.17 ± 0.43%
[10]; dose 0.037 μM
  Cell Concentration, MM cell line: 1.33 ± 0.01 ×10^6
  viability at 0.037 µM: 90.27 ± 0.1%
[10]; dose 0.11 μM
  Cell Concentration, MM cell line: 1.28 ± 0.01 ×10^6
  viability at 0.11 µM: 87.93 ± 0.5%
[10]; dose 0.33 μM
  Cell Concentration, MM cell line: 1.18 ± 0.04 ×10^6
  viability at 0.33 µM: 86.1 ± 0.31%
[10]; dose 1 μM
  Cell Concentration, MM cell line: 1.06 ± 0.01 ×10^6
  viability at 1 µM: 83.47 ± 0.46%
[10]; dose 3 μM
  Cell Concentration, MM cell line: 0.75 ± 0.03 ×10^6
  viability at 3 µM: 76.5 ± 1.48%
